Source: paper PMC9368490, “Exploring the Molecular Interactions of Symmetrical and Unsymmetrical Selenoglycosides with Human Galectin-1 and Galectin-3” (International Journal of Molecular Sciences, 2022)

Legend:
Gal-1 = molecular target: T1, Gal-1 (Homo sapiens, UniProt P09382); test: biochemical
T1 construct: gene LGALS1

Gal-3^CRD = molecular target: T2, Gal-3^CRD (Homo sapiens, UniProt P17931); test: biochemical
T2 construct: gene LGALS3
T2 sequence (P17931 112-250): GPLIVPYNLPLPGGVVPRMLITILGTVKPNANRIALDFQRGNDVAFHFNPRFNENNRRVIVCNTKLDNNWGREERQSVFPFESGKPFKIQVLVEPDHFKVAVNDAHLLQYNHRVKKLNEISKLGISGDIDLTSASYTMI

T1 sequence (P09382 whole entry): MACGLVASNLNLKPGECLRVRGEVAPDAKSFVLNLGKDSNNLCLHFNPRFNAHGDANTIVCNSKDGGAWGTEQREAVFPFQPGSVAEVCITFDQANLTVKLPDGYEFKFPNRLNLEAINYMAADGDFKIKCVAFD

OC[C@H]1O[C@@H]([Se][C@@H]2O[C@H](CO)[C@H](O)[C@H](O)[C@H]2O)[C@H](O)[C@@H](O)[C@H]1O [SeDG]
Kd (Gal-1): 23.7 ± 4.2 µM | Kd (Gal-3^CRD): 20.2 ± 2.2 µM
